Article PMC9006954, “Computer-Based Immunoinformatic Analysis to Predict Candidate T-Cell Epitopes for SARS-CoV-2 Vaccine Design” (Frontiers in Immunology, 2022)
Where no end group is shown, it is not given here.

Target: T1, HLA-A*11:01 protein (Homo sapiens, UniProt P04439, A114D/D185E/E176A/F33Y/L180Q/S129P/T187R)
T1 construct: biotin (biotinylated)
Experiment: Bio-Layer Interferometry (BLI) affinity test, Octet R8
Details: Octet R8, SSA sensors, peptides 100-3.125 µM in PBST (PBS+0.02%Tween20+1% DMSO), balance, binding, dissociation 60 s each

| Sequence | Kd [µM] | KD | KD (listed as 13[…]21) |
| --- | --- | --- | --- |
| GLSPTKLNDL | 319 | – | – |
| KCYGLSPTK | 23 | – | – |
| SQCVNFTTR | – | Non-binding | not detected |
| FSTFKCYGL | 5.95 | – | – |
